Measured values taken from US10239835B2, “N-alkylaryl-5-oxyaryl-octahydro-cyclopenta[c]pyrrole negative allosteric modulators of NR2B” (Luc Therapeutics, Inc., priority 2014, dated 2019).
Each block holds one compound with its values, some of them ahead of it.

Tests used:
[1] = molecular target: HEK293 cells expressing NR1/NR2B (Homo sapiens (Human), UniProt Q05586+Q13224); experiment: NR2B NAM Assay (FDSS Ca2+ influx cell assay); type: cell-based; details: NR2B NAM assay, class of inhibitory concentration; read-out: Activity Category
Description: (§1) Cell Culture and plating: HEK293 cells expressing NR1/NR2B (Chantest, Cleveland, Ohio) were grown to 70-80% confluency as an adherent monolayer in standard tissue culture flasks at 37° C., 5% CO2 per supplier's instructions. NR2B expression was induced by incubation with 0.3-0.4 μg/ml tetracycline in the presence of 4 mM ARL-15896 for 18-24 hours under the same growth conditions, then transferred to 30° C. for another 3-5 hours.
(§2) After induction, cell culture medium was removed and cells were rinsed once with Ca^2+ and Mg^2+-free Dulbecco's phosphate buffered saline. Cells were then removed from the flask using TrypLE™ Express (Life Technologies) according to the manufacturer's instructions and collected to 50 ml centrifuge tubes. Following two washes in Ca^2+/Mg^2+-free HBSS with 20 mM HEPES (HHnoCa), cells were counted and viability assessed using trypan blue. To load cells with Ca^2+-sensitive dye, they were resuspended in fluo-8 plus Component B (AAT Bioquest Products) diluted in HHnoCa and incubated 15 minutes at 37° C., followed by 30 minutes at room temp (in dark). Cells were then washed and resuspended in HHnoCa to remove extracellular dye and plated in 384-well plates (Falcon, uncoated) at 20,000-30,000 cells/well in a final volume of 25 μl/well.
(§3) FDSS Assay: To each well of the plate, 10 μL test compound, control (MK801) or HHnoCa buffer was added at different concentrations to yield final concentrations of 0.001, 0.003, 0.010, 0.030, 0.100, 0.300, 1.000, 3.000, 10.000, or 30.000 uM final concentration of DMSO of 0.1%. Following 10 minutes pre-incubation in the dark, plates are loaded onto the Hamamatsu FDSS 6000. After collecting baseline fluorescence images, 3 μM glutamate, 3 μM glycine, and 1 mM Ca^2+ in HHnoCa buffer is added to each well, and Ca^2+ is recorded for 3 minutes. Data were processed by computing ratio of fluorescence at the end of data collection to baseline fluorescence to assess degree of Ca^2+ influx inhibition relative to that observed in MK801.
(§4) Table 8 below provides activity of each compound according to the legend that “++++” indicates inhibition at a concentration<100 nM; “+++” indicates inhibition at a concentration between 100 nM and 1 μM of the disclosed compound; “++” indicates inhibition at a concentration of from 1 μM to 10 μM; and “+” indicates inhibition at a concentration>10 μM.

[2] = molecular target: HEK293 cells expressing NR1/NR2B (Homo sapiens (Human), UniProt Q13224); experiment: NR2B NAM Assay (FDSS Ca2+ influx cell assay); type: cell-based; details: Ca2+ influx inhibition relative to MK801; 3 μM glutamate, 3 μM glycine, 1 mM Ca2+; read-out: NR2B NAM IC50
Description: as §1, §2, §3, §4

HEK293 cells expressing NR1/NR2B (Homo sapiens (Human), UniProt Q13224), sequence (Q13224 27-1484, other chains not shown): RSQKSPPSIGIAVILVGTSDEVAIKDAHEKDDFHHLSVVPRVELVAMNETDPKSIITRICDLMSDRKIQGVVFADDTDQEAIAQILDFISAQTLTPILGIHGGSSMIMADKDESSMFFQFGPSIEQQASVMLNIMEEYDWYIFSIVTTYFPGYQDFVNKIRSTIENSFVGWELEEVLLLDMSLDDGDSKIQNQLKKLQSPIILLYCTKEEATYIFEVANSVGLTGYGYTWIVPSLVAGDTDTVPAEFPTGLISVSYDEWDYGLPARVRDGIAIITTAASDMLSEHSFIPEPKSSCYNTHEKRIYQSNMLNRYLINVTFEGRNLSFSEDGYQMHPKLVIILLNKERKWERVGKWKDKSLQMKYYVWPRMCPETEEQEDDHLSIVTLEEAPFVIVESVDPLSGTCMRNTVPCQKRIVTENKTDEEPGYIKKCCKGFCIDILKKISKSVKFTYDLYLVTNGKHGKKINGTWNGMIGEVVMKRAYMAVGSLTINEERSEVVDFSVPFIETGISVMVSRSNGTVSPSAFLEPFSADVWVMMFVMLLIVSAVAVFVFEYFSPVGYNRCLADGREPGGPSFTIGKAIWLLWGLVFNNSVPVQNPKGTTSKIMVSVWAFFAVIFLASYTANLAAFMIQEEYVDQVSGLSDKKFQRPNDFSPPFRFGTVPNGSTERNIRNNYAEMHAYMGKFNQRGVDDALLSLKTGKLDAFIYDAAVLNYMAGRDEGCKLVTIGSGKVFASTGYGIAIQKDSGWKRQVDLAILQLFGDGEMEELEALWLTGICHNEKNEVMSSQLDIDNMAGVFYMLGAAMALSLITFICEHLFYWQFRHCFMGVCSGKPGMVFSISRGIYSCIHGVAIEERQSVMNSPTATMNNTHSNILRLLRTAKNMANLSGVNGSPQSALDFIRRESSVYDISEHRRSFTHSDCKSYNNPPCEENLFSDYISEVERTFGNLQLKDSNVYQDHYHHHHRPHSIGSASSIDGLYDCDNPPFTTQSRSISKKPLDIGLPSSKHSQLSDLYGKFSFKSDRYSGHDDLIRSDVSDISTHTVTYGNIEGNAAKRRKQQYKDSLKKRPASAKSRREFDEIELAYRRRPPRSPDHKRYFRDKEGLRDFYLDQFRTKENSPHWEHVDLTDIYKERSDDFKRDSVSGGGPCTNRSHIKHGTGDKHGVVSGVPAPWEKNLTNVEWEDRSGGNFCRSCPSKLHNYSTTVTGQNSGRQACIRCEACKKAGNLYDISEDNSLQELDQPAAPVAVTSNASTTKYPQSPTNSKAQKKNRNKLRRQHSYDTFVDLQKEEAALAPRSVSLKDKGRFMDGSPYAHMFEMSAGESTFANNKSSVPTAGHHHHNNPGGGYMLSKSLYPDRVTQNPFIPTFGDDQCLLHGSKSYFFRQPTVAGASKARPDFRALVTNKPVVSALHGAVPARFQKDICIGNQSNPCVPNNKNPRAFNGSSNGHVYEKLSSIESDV
HEK293 cells expressing NR1/NR2B (Homo sapiens (Human), UniProt Q05586+Q13224), sequence (Q13224 27-1484, other chains not shown): as above

Compound: Cc1ncccc1O[C@H]1C[C@@H]2CN(CC(=O)c3ccc(O)cc3)C[C@@H]2C1
IC50 [1]: 100 to 1000 nM
IC50 [2]: 134 nM

Compound: COc1ncccc1O[C@H]1C[C@@H]2CN(CC(=O)c3ccc(O)cc3)C[C@@H]2C1
IC50 [1]: > 10000 nM
IC50 [2]: 10000 nM

Compound: O=C(CN1C[C@H]2C[C@H](Oc3ccc(F)c(F)c3)C[C@H]2C1)c1ccc(O)cn1
IC50 [1]: 1000 to 10000 nM
IC50 [2]: 1260 nM

Compound: O=C(CN1C[C@H]2C[C@H](Oc3cccnc3F)C[C@H]2C1)c1ccc(O)cn1
IC50 [1]: > 10000 nM
IC50 [2]: 10000 nM

Compound: COc1ccc(O[C@H]2C[C@@H]3CN(CC(O)c4ccc(O)c(F)n4)C[C@@H]3C2)cc1 (stereo partly drawn)
IC50 [1]: 1000 to 10000 nM
IC50 [2]: 3290 nM

Compound: COC(CN1C[C@H]2C[C@H](Oc3ccc(F)cc3)C[C@H]2C1)c1ccc(O)cc1 (stereo partly drawn)
IC50 [1]: 100 to 1000 nM
IC50 [2]: 139 nM

Compound: COc1ccc(O[C@H]2C[C@@H]3CN(CC(O)c4ccc(O)c(OC)n4)C[C@@H]3C2)cc1 (stereo partly drawn)
IC50 [1]: 1000 to 10000 nM
IC50 [2]: 1330 nM

Compound: COc1ccc(O[C@@H]2C[C@@H]3CN(CC(=O)c4ccc(O)cn4)C[C@@H]3C2)cc1
IC50 [1]: 1000 to 10000 nM
IC50 [2]: 7100 nM

Compound: O=C(CN1C[C@H]2C[C@H](Oc3cc(F)cc(F)c3)C[C@H]2C1)c1ccc(O)cn1
IC50 [1]: > 10000 nM
IC50 [2]: 10000 nM

Compound: Oc1ccc(C(O)CN2C[C@H]3C[C@H](Oc4cncc(Cl)c4)C[C@H]3C2)cc1 (stereo partly drawn)
IC50 [1]: 100 to 1000 nM
IC50 [2]: 493 nM

Compound: O=S(=O)(c1ccccc1)[C@H]1C[C@@H]2CN(CC(O)c3ccc(O)cc3)C[C@@H]2C1 (stereo partly drawn)
IC50 [1]: 1000 to 10000 nM
IC50 [2]: 4370 nM

Compound: COc1ccc(O[C@H]2C[C@@H]3CN(CC(=O)c4ccc(O)c(F)n4)C[C@@H]3C2)cc1
IC50 [1]: > 10000 nM
IC50 [2]: 10000 nM

Compound: Oc1ccc(C(O)CN2C[C@H]3C[C@H](Oc4ccc(F)cc4F)C[C@H]3C2)nc1 (stereo partly drawn)
IC50 [1]: < 100 nM
IC50 [2]: 6.81 nM

Compound: COc1cccc(F)c1O[C@H]1C[C@@H]2CN(CC(=O)c3ccc(O)cc3)C[C@@H]2C1
IC50 [1]: 100 to 1000 nM
IC50 [2]: 466 nM

Compound: O=C(CN1C[C@H]2CC(S(=O)(=O)c3ccccc3)C[C@H]2C1)c1ccc(O)cc1 (stereo partly drawn)
IC50 [1]: 1000 to 10000 nM
IC50 [2]: 3500 nM

Compound: O=C(CN1C[C@H]2C[C@H](Oc3ccc(F)c(F)c3)C[C@H]2C1)c1ccc(O)cc1
IC50 [1]: < 100 nM
IC50 [2]: 61.6 nM

Compound: Cc1ncccc1O[C@H]1C[C@@H]2CN(CC(O)c3ccc(O)cc3)C[C@@H]2C1 (stereo partly drawn)
IC50 [1]: 100 to 1000 nM
IC50 [2]: 188 nM

Compound: Oc1ccc(C(O)CN2C[C@H]3C[C@H](Oc4ccc(F)c(F)c4)C[C@H]3C2)nc1 (stereo partly drawn)
IC50 [1]: < 100 nM
IC50 [2]: 17.8 nM

Compound: O=C(CN1C[C@H]2C[C@H](Oc3ccc(F)cc3)C[C@H]2C1)c1cnn(Cc2ccccc2)c1
IC50 [1]: > 10000 nM
IC50 [2]: 10000 nM

Compound: COc1ccc(O[C@H]2C[C@@H]3CN(CC(=O)c4ccc(O)cn4)C[C@@H]3C2)cc1
IC50 [1]: > 10000 nM
IC50 [2]: 10000 nM

Compound: Cc1cccc(O[C@H]2C[C@@H]3CN(CC(=O)c4ccc(O)cc4)C[C@@H]3C2)c1F
IC50 [1]: 100 to 1000 nM
IC50 [2]: 177 nM

Now from value to compound:

IC50 [1]: < 100 nM
IC50 [2]: 30.2 nM
Compound: Oc1ccc(C(O)CN2C[C@H]3C[C@H](Oc4ccc(F)cc4)C[C@H]3C2)nc1F (stereo partly drawn)

IC50 [1]: < 100 nM
IC50 [2]: 58.3 nM
Compound: Oc1ccc(C(O)CN2C[C@H]3C[C@H](Oc4cc(F)cc(F)c4)C[C@H]3C2)nc1 (stereo partly drawn)

IC50 [1]: < 100 nM
IC50 [2]: 37.6 nM
Compound: Oc1ccc(C(O)CN2C[C@H]3C[C@@H](Oc4ccc(F)c(F)c4)C[C@H]3C2)nc1 (stereo partly drawn)

IC50 [1]: < 100 nM
IC50 [2]: 4.41 nM
Compound: Oc1ccc(C(O)CN2C[C@H]3C[C@H](Oc4ccc(F)cc4)C[C@H]3C2)nc1 (stereo partly drawn)

IC50 [1]: < 100 nM
IC50 [2]: 5.24 nM
Compound: Oc1ccc([C@H](O)CN2C[C@H]3C[C@H](Oc4ccccc4)C[C@H]3C2)nc1

IC50 [1]: < 100 nM
IC50 [2]: 53.2 nM
Compound: O=C(CN1C[C@H]2C[C@@H](Oc3ccc(F)cc3)C[C@H]2C1)c1ccc(O)c(F)c1

IC50 [1]: < 100 nM
IC50 [2]: 29.3 nM
Compound: O=C(CN1C[C@H]2C[C@H](Oc3c(F)cccc3F)C[C@H]2C1)c1ccc(O)cc1

IC50 [1]: < 100 nM
IC50 [2]: 8.62 nM
Compound: Oc1ccc(C(O)CN2C[C@H]3C[C@H](Oc4ccc(F)cc4F)C[C@H]3C2)cc1 (stereo partly drawn)

IC50 [1]: < 100 nM
IC50 [2]: 60.2 nM
Compound: Cc1ccc(O[C@H]2C[C@@H]3CN(CC(O)c4ccc(O)cn4)C[C@@H]3C2)c(F)n1 (stereo partly drawn)

IC50 [1]: < 100 nM
IC50 [2]: 72.6 nM
Compound: Cc1cccc(O[C@H]2C[C@@H]3CN(CC(O)c4ccc(O)cc4)C[C@@H]3C2)c1F (stereo partly drawn)

IC50 [1]: < 100 nM
IC50 [2]: 10.7 nM
Compound: O=C(CN1C[C@H]2C[C@H](Oc3ccccc3)C[C@H]2C1)c1ccc(O)cc1

IC50 [1]: < 100 nM
IC50 [2]: 80.7 nM
Compound: Oc1ccc(C(O)CN2C[C@H]3C[C@@H](Oc4ccc(F)c(F)c4)C[C@H]3C2)cc1 (stereo partly drawn)
